Measured values taken from the NIST ThermoML archive (doi:10.1016/j.fluid.2016.08.035).

Assay: molar heat capacity at constant pressure; xn = mol fraction of the nth substance listed
Details: 101 kPa, Liquid, DSC

CC12CCC(CC1)C(C)(C)O2 [1,3,3-trimethyl-2-oxabicyclo[2.2.2]octane] + CCCCCCCC
molar heat capacity at constant pressure [J/K/mol]
Details | x1 = 0.1046 | x1 = 0.199 | x1 = 0.2987 | x1 = 0.4008 | x1 = 0.4955 | x1 = 0.5939 | x1 = 0.6971 | x1 = 0.7985 | x1 = 0.8939 | x1 = 1
278.15 K | 246.2 | 246.45 | 246.89 | 247.59 | 248.46 | 249.62 | 250.95 | 252.64 | 254.3 | 256.14
298.15 K | 254.53 | 255.32 | 256.22 | 257.36 | 258.59 | 260.07 | 261.75 | 263.66 | 265.57 | 267.69
318.15 K | 263.19 | 264.31 | 265.53 | 267 | 268.51 | 270.26 | 272.14 | 274.24 | 276.39 | 278.65
338.15 K | 272.35 | 273.81 | 275.37 | 277.18 | 278.93 | 280.96 | 283.13 | 285.45 | 287.81 | 290.33
